Assays:
Type in all cases: in vivo
Conditions in all cases: applied at 1000 g/h, evaluated after 13 days
[1] = system: Alopecurus myosuroides (ALOMY); test: Herbicidal glasshouse test, pre-emergence, ALOMY
[2] = system: Setaria faberi (SETFA); test: Herbicidal glasshouse test, pre-emergence, SETFA
[3] = system: Echinochloa crus-galli (ECHCG); test: Herbicidal glasshouse test, pre-emergence, ECHCG
Procedure, shortened: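 In this pre-emergence glasshouse test, ECHCG seeds sown in pots of standard soil were sprayed one day after sowing with the test material in acetone/water (50:50) containing 0.5% Tween 20. Plants were kept at 24/16° C., 14 hours light, 65% humidity, and watered twice daily. Percentage damage was rated after 13 days on a 1–5 scale.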

[4] = system: Solanum nigrum (SOLNI); test: Herbicidal glasshouse test, pre-emergence, SOLNI
Procedure, shortened: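 This pre-emergence glasshouse herbicide test used Solanum nigrum sown in standard soil. One day after sowing, pots were sprayed with the compound in acetone/water (50:50) with 0.5% Tween 20. They were then grown at 24/16° C., with 14 hours light and 65% humidity, and watered twice daily. Percentage damage was scored after 13 days on a five point scale, where 5=80-100% and 1=0-19%.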

[5] = system: Amaranthus retoflexus (AMARE); test: Herbicidal glasshouse test, pre-emergence, AMARE
Procedure, shortened: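 This pre-emergence glasshouse herbicide test used Amaranthus retoflexus sown in standard soil. After one day of cultivation, an aqueous spray made from the technical ingredient in 50:50 acetone/water with 0.5% Tween 20 was applied. Pots stayed at 24/16° C., 14 hours light, 65% humidity, with twice-daily watering. Damage was rated on a five point scale (1=0-19% up to 5=80-100%).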

[6] = system: Ipomoea hederacea (IPOHE); test: Herbicidal glasshouse test, pre-emergence, IPOHE
[7] = system: Alopecurus myosuroides (ALOMY); test: Herbicidal glasshouse test, post-emergence, ALOMY
[8] = system: Setaria faberi (SETFA); test: Herbicidal glasshouse test, post-emergence, SETFA
Procedure, shortened: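 This post-emergence glasshouse herbicide test used potted Setaria faberi. Plants were cultivated for 8 days under controlled conditions (24/16° C. day/night, 14 hours light, 65% humidity) and then treated with an aqueous spray made from an acetone/water (50:50) solution containing 0.5% Tween 20. After 13 days of further growth with twice-daily watering, damage was rated on a five point scale (5=80-100%; 1=0-19%).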

[9] = system: Echinochloa crus-galli (ECHCG); test: Herbicidal glasshouse test, post-emergence, ECHCG
Procedure, shortened: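 In this post-emergence glasshouse test, barnyard grass (ECHCG) was cultivated for 8 days under controlled conditions (24/16° C. day/night, 14 hours light, 65% humidity). It was then sprayed with an aqueous solution of the technical compound in acetone / water (50:50) with 0.5% Tween 20. Plants were kept under the same conditions and watered twice daily. After 13 days, percentage damage was rated on a five point scale (5=80-100%; 1=0-19%).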

[10] = system: Solanum nigrum (SOLNI); test: Herbicidal glasshouse test, post-emergence, SOLNI
[11] = system: Amaranthus retoflexus (AMARE); test: Herbicidal glasshouse test, post-emergence, AMARE
Procedure, shortened: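 This post-emergence glasshouse test used AMARE plants raised in standard soil for 8 days under controlled conditions (24/16° C. day/night, 14 hours light, 65% humidity). Foliage was sprayed with formulated compound in acetone/water (50:50) containing 0.5% Tween 20. Plants were then watered twice daily, and after 13 days percentage damage was rated on a five point scale.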

[12] = system: Ipomoea hederacea (IPOHE); test: Herbicidal glasshouse test, post-emergence, IPOHE

| Compound | PRE Application ALOMY, percentage damage (five point scale) [1] | PRE Application SETFA, percentage damage (five point scale) [2] | PRE Application ECHCG, percentage damage (five point scale) [3] | PRE Application SOLNI, percentage damage (five point scale) [4] | PRE Application AMARE, percentage damage (five point scale) [5] | PRE Application IPOHE, percentage damage (five point scale) [6] | POST Application ALOMY, percentage damage (five point scale) [7] | POST Application SETFA, percentage damage (five point scale) [8] | POST Application ECHCG, percentage damage (five point scale) [9] | POST Application SOLNI, percentage damage (five point scale) [10] | POST Application AMARE, percentage damage (five point scale) [11] | POST Application IPOHE, percentage damage (five point scale) [12] |
| --- | --- | --- | --- | --- | --- | --- | --- | --- | --- | --- | --- | --- |
| Cn1nnnc1NC(=O)c1nn(C)c(=O)n(Cc2cccc(F)c2C(F)(F)F)c1=O [Compound 1.076] | 5 (5=80-100%) | 5 (5=80-100%) | 5 (5=80-100%) | 5 (5=80-100%) | 5 (5=80-100%) | 5 (5=80-100%) | 5 (5=80-100%) | 5 (5=80-100%) | 5 (5=80-100%) | 5 (5=80-100%) | 5 (5=80-100%) | 5 (5=80-100%) |
| Cn1nnnc1NC(=O)c1nn(C)c(=O)n(Cc2cccc(C#N)c2)c1=O [Compound 1.054] | 5 (5=80-100%) | 4 (4=60-79%) | 5 (5=80-100%) | 5 (5=80-100%) | 5 (5=80-100%) | 5 (5=80-100%) | 5 (5=80-100%) | 4 (4=60-79%) | 5 (5=80-100%) | 5 (5=80-100%) | 5 (5=80-100%) | 5 (5=80-100%) |
| Cc1cccc(Cn2c(=O)c(C(=O)Nc3nnnn3C)nn(C)c2=O)c1 [Compound 1.052] | 5 (5=80-100%) | 1 (1=0-19%) | 5 (5=80-100%) | 5 (5=80-100%) | 5 (5=80-100%) | 2 (2=20-39%) | 5 (5=80-100%) | 1 (1=0-19%) | 5 (5=80-100%) | 5 (5=80-100%) | 5 (5=80-100%) | 5 (5=80-100%) |
| CCCCn1c(=O)c(C(=O)Nc2ncnn2C)nn(C)c1=O [Compound 5.003] | 1 (1=0-19%) | 4 (4=60-79%) | 1 (1=0-19%) | 5 (5=80-100%) | 5 (5=80-100%) | 4 (4=60-79%) | 3 (3=40-59%) | 4 (4=60-79%) | 4 (4=60-79%) | 5 (5=80-100%) | 5 (5=80-100%) | 4 (4=60-79%) |
| Cn1nnnc1NC(=O)c1nn(C)c(=O)n(CC2CCCCC2)c1=O [Compound 1.096] | 5 (5=80-100%) | 4 (4=60-79%) | 5 (5=80-100%) | 5 (5=80-100%) | 5 (5=80-100%) | 5 (5=80-100%) | 4 (4=60-79%) | 5 (5=80-100%) | 5 (5=80-100%) | 5 (5=80-100%) | 5 (5=80-100%) | 5 (5=80-100%) |
| Cn1nnnc1NC(=O)c1nn(C)c(=O)n(Cc2ccc(C(F)F)cc2)c1=O [Compound 1.086] | 5 (5=80-100%) | 2 (2=20-39%) | 5 (5=80-100%) | 5 (5=80-100%) | 5 (5=80-100%) | 5 (5=80-100%) | 5 (5=80-100%) | 2 (2=20-39%) | 5 (5=80-100%) | 5 (5=80-100%) | 5 (5=80-100%) | 5 (5=80-100%) |
| Cn1nnnc1NC(=O)c1nn(C)c(=O)n(-c2cc(F)cc(F)c2)c1=O [Compound 1.042] | 5 (5=80-100%) | 5 (5=80-100%) | 5 (5=80-100%) | 5 (5=80-100%) | 5 (5=80-100%) | 5 (5=80-100%) | 5 (5=80-100%) | 5 (5=80-100%) | 5 (5=80-100%) | 5 (5=80-100%) | 5 (5=80-100%) | 5 (5=80-100%) |
| Cn1nnnc1NC(=O)c1nn(C)c(=O)n(-c2cc(Cl)cc(Cl)c2)c1=O [Compound 1.035] | 5 (5=80-100%) | 4 (4=60-79%) | 5 (5=80-100%) | 5 (5=80-100%) | 5 (5=80-100%) | 5 (5=80-100%) | 5 (5=80-100%) | 5 (5=80-100%) | 5 (5=80-100%) | 5 (5=80-100%) | 5 (5=80-100%) | 5 (5=80-100%) |
